Measurements: article PMC10728897, “High-Throughput Engineering of Nonribosomal Extension Modules” (ACS Chemical Biology, 2023)

Experiments:
TycB2 A-T bidomain = target: T1, TycB2 A-T bidomain (Brevibacillus parabrevis, UniProt O30408, M1767A/M1802I, form not given); test: yeast surface display loading assay, click biotinylation, flow cytometry; format: cell-based; conditions: 0.5 mM pPhe with 0.5 mM L-Phe as competitor, 0.1 mM ATP, pH 7.4, 25 C; covalent loading on ppant of T domain
T1 construct: gene tycB; ppant installed by Sfp
T1 sequence (O30408 1530-2090 M1767A/M1802I, form open): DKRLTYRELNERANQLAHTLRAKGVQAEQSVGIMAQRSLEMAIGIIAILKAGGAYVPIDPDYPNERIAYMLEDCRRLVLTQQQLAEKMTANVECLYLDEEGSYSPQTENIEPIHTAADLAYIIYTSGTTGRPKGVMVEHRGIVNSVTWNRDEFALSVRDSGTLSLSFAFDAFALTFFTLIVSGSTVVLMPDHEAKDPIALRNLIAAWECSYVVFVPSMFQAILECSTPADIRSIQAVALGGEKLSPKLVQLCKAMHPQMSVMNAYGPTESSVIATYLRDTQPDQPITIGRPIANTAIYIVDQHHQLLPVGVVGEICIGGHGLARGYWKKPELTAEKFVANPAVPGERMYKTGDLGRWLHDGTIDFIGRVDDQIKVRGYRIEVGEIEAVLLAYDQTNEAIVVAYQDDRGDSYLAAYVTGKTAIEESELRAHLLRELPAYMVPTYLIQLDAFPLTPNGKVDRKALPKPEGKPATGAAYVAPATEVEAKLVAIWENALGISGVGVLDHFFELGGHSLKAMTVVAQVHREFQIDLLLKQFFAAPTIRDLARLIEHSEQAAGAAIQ

TycC6 C-A-T tridomain = target: T2, TycC6 C-A-T tridomain (Brevibacillus parabrevis, UniProt O30409); test: as above; format: cell-based; conditions: 20 and 50 mM pGly, 0.1 mM ATP, 1 mM MgCl2, pH 7.4, 25 C; covalent loading on ppant of T domain; modest efficiency
T2 construct: gene tycC; ppant installed by Sfp
T2 sequence (O30409 5200-6255 limits assumed): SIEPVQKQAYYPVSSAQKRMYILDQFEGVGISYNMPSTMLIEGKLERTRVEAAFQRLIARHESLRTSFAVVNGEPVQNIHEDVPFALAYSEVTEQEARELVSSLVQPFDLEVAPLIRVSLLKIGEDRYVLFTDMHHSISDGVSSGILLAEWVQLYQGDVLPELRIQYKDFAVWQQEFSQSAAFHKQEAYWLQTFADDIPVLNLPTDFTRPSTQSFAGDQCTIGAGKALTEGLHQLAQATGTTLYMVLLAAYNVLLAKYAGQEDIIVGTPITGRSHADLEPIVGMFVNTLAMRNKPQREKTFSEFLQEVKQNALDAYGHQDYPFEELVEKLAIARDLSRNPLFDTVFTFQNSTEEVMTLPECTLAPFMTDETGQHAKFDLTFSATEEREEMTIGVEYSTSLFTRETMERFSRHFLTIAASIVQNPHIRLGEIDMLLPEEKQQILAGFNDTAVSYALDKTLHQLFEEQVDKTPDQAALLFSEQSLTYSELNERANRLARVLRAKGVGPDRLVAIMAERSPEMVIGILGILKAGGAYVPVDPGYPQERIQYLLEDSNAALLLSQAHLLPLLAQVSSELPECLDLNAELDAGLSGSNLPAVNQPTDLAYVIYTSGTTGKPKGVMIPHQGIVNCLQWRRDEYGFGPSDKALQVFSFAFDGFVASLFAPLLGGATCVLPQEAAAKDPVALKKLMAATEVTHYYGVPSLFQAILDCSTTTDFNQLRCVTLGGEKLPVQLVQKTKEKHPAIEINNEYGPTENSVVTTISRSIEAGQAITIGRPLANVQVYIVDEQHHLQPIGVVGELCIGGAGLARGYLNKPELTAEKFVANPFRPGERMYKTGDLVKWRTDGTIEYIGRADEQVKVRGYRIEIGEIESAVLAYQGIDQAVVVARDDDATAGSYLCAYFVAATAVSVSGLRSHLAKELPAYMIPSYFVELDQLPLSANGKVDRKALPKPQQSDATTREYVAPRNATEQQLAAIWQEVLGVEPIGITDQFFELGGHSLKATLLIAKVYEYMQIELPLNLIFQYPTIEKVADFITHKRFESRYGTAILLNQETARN

| SMILES | yeast surface display loading assay, click biotinylation, flow cytometry (TycB2 A-T bidomain) | yeast surface display loading assay, click biotinylation, flow cytometry (TycC6 C-A-T tridomain) |
| --- | --- | --- |
| C#CCOc1ccc(C[C@H](N)C(=O)O)cc1 [pPhe, 4-propargyloxy-L-phenylalanine] | the variant with the M1768A and M1803I mutations was the most active and selective | – |
| C#CCC(N)C(=O)O (centres unmarked) [pGly, propargyl glycine] | – | the displayed module was found to activate pGly in a concentration-dependent manner |
